Source: paper PMC8524858, “Dual inhibition of αvβ6 and αvβ1 reduces fibrogenesis in lung tissue explants from patients with IPF” (Respiratory Research, 2021)

Legend:
[1] = test system: Smad2 phosphorylation (canonical TGF-β signaling) in IPF PCLSs; assay: Smad2 phosphorylation in PCLSs from IPF explant tissue; format: cell-based, human; conditions: 7 days; n = 3 individual patients (Fig. S1B)
Description: Integrin αvβ1 protein levels and Smad phosphorylation levels in tissues or cells were quantified by the Meso Scale Discovery custom electrochemiluminescence assay.
Biotin-labeled antibodies for total Smad2/3, phosphorylated Smad2 (pSmad2), and total Smad2 (Cell Signaling Technology; Danvers, MA, USA), and antibodies for phosphorylated Smad3 (pSmad3) and total Smad3 (Abcam; Cambridge, UK) were utilized for pSmad electrochemiluminescence assays.
pSmad2 and total Smad2 quantitation were performed similarly to that described for pSmad3 and total Smad3 above, with the exception that U-PLEX linker conjugated biotinylated anti-pSmad2 and total Smad2 antibodies were bound to U-PLEX MSD assay plates (MSD; K15227N-2) according to manufacturer’s instruction, followed by unknown sample incubation and addition of sulfo-tag-labeled anti-Smad2/3 antibody.
Human PCLSs were generated from lung tissue explants from patients with IPF undergoing transplant surgery and cultured based on previously reported methods (E7-E12). Slices of tissue (400 µm) were cut using a Compresstome VF-300-0Z (Precisionary Instruments; Natick, MA, USA).

[2] = test system: PCLSs prepared from bleomycin-challenged mouse lungs; assay: Col1a1 expression in PCLSs from bleomycin-challenged mouse lungs; format: cell-based
Source text: PCLSs were generated from explanted lung tissue from patients with IPF and cultured as previously described. Mouse PCLSs were generated and cultured as previously described. Messenger ribonucleic acid (mRNA) levels in lysates prepared from snap-frozen tissue slices were quantified via NanoString PlexSet reagents and nCounter SPRINT Profiler (NanoString; Seattle, WA, USA; Additional file 1: Table S2) or TaqMan primers/probes on a Bio-Rad CFX96 thermocycler (Bio-Rad; Hercules, CA, USA; Additional file 1: Table S3).
Mouse PCLSs were generated and cultured based on previously reported methods (E13). Briefly, mice were challenged with bleomycin (Hospira; Lake Forest, IL, USA or Teva; Toronto, ON, Canada), either acutely with a single dose (3 U/kg or 4 U/kg) or chronically with multiple doses (3 U/kg bleomycin followed by four 1 U/kg challenges at 2-week intervals). Fourteen days after the final bleomycin challenge, lungs were harvested and 200 μm-thick slices were cut using a Compresstome VF-300-0Z (Precisionary Instruments).
Slices from each individual core (human) or mouse were distributed among the treatment groups to control for variability in the fibrotic injury within the tissue. […] After 3 or 7 days in culture, slices were washed and snap-frozen. Viability of sentinel slices on Days 0/1 and 3/7 was determined using WST-1 Cell Proliferation Reagent (Sigma 5015944001; St Louis, MO, USA).
For all figures (except Fig. 2B, Fig. S2, and Fig. S4), snap-frozen tissue slices were incubated in one-third RLT buffer (Qiagen #79216; Venlo, Netherlands) supplemented with 2 mg/ml proteinase K (Sigma-Aldrich #3115887001; St Louis, MO, USA) at 55 °C for 2 h 45 min, with periodic vortexing to generate ribonucleic acid (RNA)-compatible tissue lysate. This lysate was incubated overnight with probes from a custom fibrosis gene panel and NanoString PlexSet reagents (Table S2). The following day, samples were analyzed on a NanoString nCounter SPRINT Profiler (NanoString; Seattle, WA, USA). Messenger RNA (mRNA) counts were normalized to housekeeping genes (GUSB, HPRT1, RPLP0, and/or POLR1B) and total mRNA counts, relative to vehicle-treated control from the same experiment, are reported.
For Figs. 2B, S2, and S4, RNA purification and qPCR were performed by Transcriptic, Inc. (Menlo Park, CA, USA) using a proprietary automated protocol. Briefly, RNA was purified on a KingFisher Flex system (Thermo Fisher) and qPCR was performed on a Bio-Rad CFX96 (Bio-Rad; Hercules, CA, USA) with TaqMan primers/probes (Thermo Fisher) listed in Table S3. Ct values were normalized to housekeeping genes (Rn18sRn45s and Hprt) and reported as ddCT and fold change versus the vehicle-treated samples.

[3] = test system: normal human bronchial epithelial cell adhesion to LAP (αvβ6 integrin-mediated); assay: Primary cell LAP adhesion assay (cell impedance), NHBE; format: cell-based; conditions: normal human bronchial epithelial cells, read-out: IC50 for inhibition of adhesion to LAP
Description: Adhesion of primary human lung cells to LAP was quantified using the xCELLigence RTCA MP instrument (ACEA Biosciences; San Diego, CA, USA) via cell impedance measurements similar to that previously described.
Adhesion assays were performed using the xCELLigence RTCA MP instrument (ACEA Biosciences; San Diego, CA, USA) on 96-well PET plates (ACEA Biosciences; 300600910) via a cell impedance measurement similar to one previously described (E6). Plates were coated with LAP (Sino Biological; 10804-H08H1) overnight at 4 °C and blocked with BSA for 2 h at 37 °C. NHLF (40,000 cells/well), dHLF (40,000 cells/well), or NHBE (20,000 cells per well) in FBS-free media were combined with small-molecule integrin inhibitors or antibodies in the plates and incubated at 37 °C with 5% CO2. […] Anti-αv antibody, 17E6, and anti-β1 antibody, P5D2, were tested at a single concentration (10 μg/ml). Cell impedance (cell index) was measured at baseline and every 3 min for up to 24 h using xCELLigence RTCA 2.1.0 Software (ACEA Biosciences). […] Geometric mean IC50 was calculated for each compound following repeat analyses of multiple donor cells.

For COCCN(CCCCc1ccc2c(n1)NCCC2)CC[C@H](Nc1ncnc2ccccc12)C(=O)O [PLN-74809], the “reduction in Smad2 phosphorylation” value [1] was “approximately 50%”, the “lowest concentration with significant reduction of Col1a1 mRNA expression” value ([2]; 3 days of treatment (Fig. S2)) was 16 nM and the “reduction of Col1a1 mRNA expression” value ([2]; 3 days of treatment, dose titration (Fig. S2)) was “up to 71%”. For the same compound, the IC50 ([2]; Mus musculus, 72 h, 3 days of treatment, extrapolation from dose-response curve of combined experiments (Fig. S4), read-out: minimum concentration required to reduce Col1a1 mRNA levels by 50%) was 172 nM, the “inhibition of collagen mRNA expression” value ([2]; acutely injured mouse lungs, 3 days, PLN-74809 200 nM, GSK3008348 1000 nM, CWHM-12 1000 nM (Fig. 2B)) was “virtually the same degree as less selective multi-αv integrin inhibitors” and the “effect on Col1a1 gene expression” value ([2]; chronic bleomycin-challenged mouse lungs, 7 days of treatment, nintedanib and pirfenidone at approximate clinical Cmax (Fig. 6C)) was “significantly reduced”. For the same compound, the “effect on Col1a1 mRNA expression” value ([2]; chronic bleomycin-challenged mouse lungs, 7 days, Compound A 471 nM, 3G9 0.5 µg/ml, PLN-74809 1.82 µM (Fig. 2A)) was “effective at significantly reducing” and the IC50 [3] was 39.3 nM.
